Assay results from patent US20140017223A1, “Pharmaceutical Compositions Comprising A Pancreatic Enzyme Preparation With Viral Infectivity Reduced Below A Significant Level And Methods Of Preparing And Using The Same” (Aptalis Pharma Canada Inc., priority 2010, published 2014).
“And” between values parts separate entries of the source, which are not always exact repeats. Equal values may be shown once.

How the values were obtained:
Type in all cases: cell-based, porcine parvovirus (PPV)
[1] = test system: PPV; assay: Inactivation of spiked PPV in PEP by BPL, PPV titered by chloroform/PEG method (Example 3)
From the text: U.S. Patent Publication No. 2009/0226414, incorporated by reference herein, provides a reproducible and efficient method for detecting an infectious non-enveloped virus, such as PPV, in an enzyme preparation (e.g., a pancreatic enzyme preparation) by treating the preparation prior to determining its viral infectivity. This method preserves the infectious non-enveloped virus while substantially eliminating the toxic enzyme materials from the PEP samples.
The steps of this method include:
(a) extracting a sample of the preparation at least two times with chloroform to produce a clarified sample with an upper phase and a lower phase;
(b) precipitating an aliquot of the upper phase from step (a) with polyethylene glycol (PEG);
(c) suspending the product from step (b) in a buffer;
(d) precipitating the product from step (c) with PEG;
(e) suspending the product from step (d) in a solution;
(f) removing excess PEG and fine particles from product (e) by chloroform, this allows (i) in step (e) the suspending in a 10-times smaller volume to increase the overall sensitivity up to 10-fold; and (ii) removal of the remaining interfering materials from the least diluted steps of the most toxic samples; and
(g) detecting the presence of or measuring the amount of infectious virus in the solution.
Pancrelipase powders from 2 different lots were each dissolved in 100 mM Tris, pH=8.3, at a concentration of 100 mg/ml. Two ml non-purified PPV viral stock (prepared using standard protocols (Arella et al., Physicichemical properties, production, and purification of parvoviruses. 1990, In Tijssen, P. (ed.), CRC handbook of parvoviruses. Boca Raton, Fla.: CRC Press, 11-30)) were added to 38 ml of the pancrelipase solution. The virus was mixed with the PEP using slow shaking at room temperature for one day. Aliquots were taken from the PPV-spiked pancrelipase stocks and each was incubated with different concentrations of BPL (available from Sigma-Aldrich, St. Louis, Mo.) (except the control) for 48 hours at room temperature (20° C.). […] Determination of the FFID50 was performed using the fluorescence assay as described in the PPV FFID-infectivity assay of U.S. Patent Publication No. 2009/0226414.
The experiment described in Example 1 was repeated except PEG-purified PPV was used for the infectivity assay as described in U.S. Patent Publication No. 2009/0226414.

[2] = test system: PPV; assay: Inactivation of PPV by BPL in higher concentration of PEP (200 mg/ml), time course, thiosulfate quench (Example 5); conditions: 200 mg PEP/ml
Method: The focus of this experiment was to measure the effect of increased PEP concentration on the efficiency of the inactivation procedure and to evaluate lower concentration ranges of BPL.
PPV virus stock (prepared using standard protocols (Arella et al., Physicochemical properties, production, and purification of parvoviruses. 1990, In Tijssen, P. (ed.), CRC handbook of parvoviruses. Boca Raton, Fla.: CRC Press, 11-30)) was diluted with water and this solution (containing 1.42×10^10 FFID50 PPV viruses) was used to suspend the 0.5 gram of PEP powder to yield a final concentration of 200 mg PEP/ml.
Tubes were incubated for one hour at 25° C. before the addition of BPL. BPL was added either directly to the PEP solution (for a final concentration of 0.4 vol. %) or it was first diluted ten and hundred times for final concentrations of 0.04 vol. % and 0.004 vol. %, respectively. After the addition of BPL, the solution was further mixed and incubated at 25° C. for a predetermined period (1, 2, 4, 6, or 8 hours). A sodium thiosulfate solution was freshly prepared on the day of each inactivation experiments. After the period expired for the BPL inactivation, sodium thiosulfate was added to the PEP solution, mixed intensively and incubated at least 6 hours at 4° C. to quench the excess BPL. After this step the infectivity titration experiments as described in U.S. Patent Publication No. 2009/0226414 were performed. All experiments were done using three parallel samples for each time point.

[3] = test system: PPV; assay: Inactivation of PPV by 0.8% (v/v) BPL at 4° C. (Example 6); conditions: 0.8% BPL (4 h) at 4° C.
Method: Samples prepared as in Example 1 were treated for four hours with 0.8% (v/v) BPL at 4° C.

[4] = test system: PPV; assay: Kinetics of PPV inactivation in PEP samples with 0.4% BPL at 4° C. (Example 7); conditions: PEP conc. 100 mg/mL
Method: Samples prepared in the same way as described in Example 1 were treated at 4° C. in an aqueous media (i.e. mixture of water and isopropyl alcohol).

O=C1CCO1 [BPL, Beta-propiolactone]
PPV Titer reduction ([1]; PEP #1, 0.04% (v/v) BPL): 10 FFID50/g
PPV Titer reduction ([1]; PEP #1, 0.10% (v/v) BPL): 10 FFID50/g
PPV Titer reduction ([1]; PEP #1, 0.25% (v/v) BPL): 10^5 FFID50/g
PPV Titer reduction ([1]; PEP #2, 0.04% (v/v) BPL): 10 FFID50/g
PPV Titer reduction ([1]; PEP #2, 0.10% (v/v) BPL): 10^2 FFID50/g
PPV Titer reduction ([1]; PEP #2, 0.25% (v/v) BPL): 10^5 FFID50/g
PPV Titer reduction ([1]; PEP #3, 0.04% (v/v) BPL): 10 FFID50/g
PPV Titer reduction ([1]; PEP #3, 0.10% (v/v) BPL): 10^2 FFID50/g
PPV Titer reduction ([1]; PEP #3, 0.25% (v/v) BPL): 10^5 FFID50/g
PPV Titer reduction ([1]; PEP #4, 0.04% (v/v) BPL): 10 FFID50/g
PPV Titer reduction ([1]; PEP #4, 0.10% (v/v) BPL): 10^2 FFID50/g
PPV Titer reduction ([1]; PEP #4, 0.25% (v/v) BPL): 10^4 FFID50/g
Detected PPV titer average ([2]; 0.004% BPL, 1 hr at 25° C.): 8.13 × 10^9 FFID50/g
Log10 of inactivation ([2]; 0.004% BPL, 1 hr at 25° C.): 0.4 Log10
Detected PPV titer average ([2]; 0.004% BPL, 2 hr at 25° C.): 5.96 × 10^9 FFID50/g
Log10 of inactivation ([2]; 0.004% BPL, 2 hr at 25° C.): 0.6 Log10
Detected PPV titer average ([2]; 0.004% BPL, 4 hr at 25° C.): 5.86 × 10^9 FFID50/g
Log10 of inactivation ([2]; 0.004% BPL, 4 hr at 25° C.): 0.58 Log10
Detected PPV titer average ([2]; 0.004% BPL, 6 hr at 25° C.): 6.65 × 10^9 FFID50/g
Log10 of inactivation ([2]; 0.004% BPL, 6 hr at 25° C.): 0.53 Log10
Detected PPV titer average ([2]; 0.004% BPL, 8 hr at 25° C.): 6.68 × 10^9 FFID50/g
Log10 of inactivation ([2]; 0.004% BPL, 8 hr at 25° C.): 0.53 Log10
Detected PPV titer average ([2]; 0.04% BPL, 1 hr at 25° C.): 4.01 × 10^9 FFID50/g
Log10 of inactivation ([2]; 0.04% BPL, 1 hr at 25° C.): 0.7 Log10
Detected PPV titer average ([2]; 0.04% BPL, 2 hr at 25° C.): 2.06 × 10^9 FFID50/g
Log10 of inactivation ([2]; 0.04% BPL, 2 hr at 25° C.): 1.0 Log10
Detected PPV titer average ([2]; 0.04% BPL, 4 hr at 25° C.): 1.54 × 10^9 FFID50/g
Log10 of inactivation ([2]; 0.04% BPL, 4 hr at 25° C.): 1.2 Log10
Detected PPV titer average ([2]; 0.04% BPL, 6 hr at 25° C.): 7.66 × 10^8 FFID50/g
Log10 of inactivation ([2]; 0.04% BPL, 6 hr at 25° C.): 1.5 Log10
Detected PPV titer average ([2]; 0.04% BPL, 8 hr at 25° C.): 4.91 × 10^8 FFID50/g
Log10 of inactivation ([2]; 0.04% BPL, 8 hr at 25° C.): 1.7 Log10
Detected PPV titer average ([2]; 0.4% BPL, 1 hr at 25° C.): 3.06 × 10^7 FFID50/g
Log10 of inactivation ([2]; 0.4% BPL, 1 hr at 25° C.): 2.8 Log10
Detected PPV titer average ([2]; 0.4% BPL, 2 hr at 25° C.): 8.69 × 10^6 FFID50/g
Log10 of inactivation ([2]; 0.4% BPL, 2 hr at 25° C.): 3.4 Log10
Detected PPV titer average ([2]; 0.4% BPL, 4 hr at 25° C.): 2.13 × 10^6 FFID50/g
Log10 of inactivation ([2]; 0.4% BPL, 4 hr at 25° C.): 4.0 Log10
Detected PPV titer average ([2]; 0.4% BPL, 6 hr at 25° C.): 3.26 × 10^5 FFID50/g
Log10 of inactivation ([2]; 0.4% BPL, 6 hr at 25° C.): 4.8 Log10
Detected PPV titer average ([2]; 0.4% BPL, 8 hr at 25° C.): 1.69 × 10^5 FFID50/g
Log10 of inactivation ([2]; 0.4% BPL, 8 hr at 25° C.): 5.1 Log10
Log Reduction ([3]; media Mixture water + IPA): 4.9 Log
Sample infectivity after treatment with BPL ([3]; media Mixture water + IPA): 5.2 FFID50/g log
Log Reduction ([3]; media Water): 5.2 Log
Sample infectivity after treatment with BPL ([3]; media Water): 5.0 FFID50/g log
Average PPV titer (log reduction) ([4]; reaction time 15 min): 1.1 log
Average PPV titer (log reduction) ([4]; reaction time 30 min): 1.6 log
Average PPV titer (log reduction) ([4]; reaction time 45 min): 2 log and 2.0 log
Average PPV titer (log reduction) ([4]; reaction time 60 min): 2.2 log
Average PPV titer (log reduction) ([4]; reaction time 720 min): 4.8 log
